Columns and labels:
[1] = test system: wheat powdery mildew; test: Permeable mobility fungicidal effect test in leaf section of wheat powdery mildew; type: in vivo; conditions: length of non-contracted area relative to compound (m-2); 200 mg/l, 0.5 μl applied to wheat leaf (Abukumawase)
Experimental: (Permeable Mobility Fungicidal Effect Test in Leaf Section of Wheat Powdery Mildew) In the test example 4, permeable mobility fungicidal effect test was performed on the leaf section of wheat powdery mildew with regard to the compounds I-1 to 27 according to the present invention and the comparative compounds (a) to (d), and (m-1) to (m-3) with the method described later. <Test Method> The compound in the form of a wettable powder obtained by Formulation 2 or the like was diluted and suspended with water to a predetermined concentration (200 mg/l), and 0.5 μl of the suspension was applied to a 2 to 3 cm leaf portion from the root of the three leaves of the 4th to 4.5th leaf period wheat (variety: Abukumawase) cultured by using a square plastic pot (size: 6.4 cm×6.4 cm). After these wheat leaves were subject to still standing in a glass house (temperature: 20 to 24° C., relative humidity: 20 to 70 RH) for one day, the spores of wheat powdery mildew were inoculated over the leaves by sprinkling the same with a brush from an infected leaf, a disease was contracted in the same glass house. The length of a non-contracted area generated from the applied portion to the direction of the leaf top was measured, and a relative mobility to the compound (m-2) was calculated with the following calculation […] by using the comparative compound (m-2) as a standard compound. Relative mobility=(Length of non-contracted area in each chemical section (cm)/Length of non-contracted area of compound (m-2) (cm)) (Equation 4)

[2] = test system: Botrytis cinerea; test: Antifungal activity test (PDA plate, hypha extension inhibition); type: cell-based; conditions: 1.6 ppm in PDA culture medium
Experimental: (Antifungal Activity Test against Various Pathogenic Fungi) For each of the compounds I-1 to 27 of the present invention and the comparative compounds (a) to (d), (m-1) and (m-3), 20 mg was weighed and dissolved in 2 ml of dimethylsulfoxide, and a double dilution row in 10 steps was prepared by further using dimethylsulfoxide. A 0.6 ml portion of these solutions was each added to 60 ml of a PDA culture medium (potato-dextrose-agar culture medium) at about 60° C., they were well mixed in a 100 ml Erlenmeyer flask, the solution was poured into a schale and was solidified, the plate culture media containing the compounds according to the present invention with final concentrations of 100, 50.0, 25.0, 12.5, 6.3, 3.2, 1.6, 0.8, 0.4 and 0.2 mg/l were prepared. On the other hand, the specimen bacteria cultured on the plate culture media beforehand was punched by a 4 mm diameter cork borer, and was inoculated on the plate culture media containing the aforementioned chemicals. After the inoculation, the bacteria were cultured at the optimum growth temperature of each bacterium for 1 to 7 days (for this optimum growth temperature, LIST OF CULTURES 1996 Microorganisms 10th edition published by Fermentation Research Institute (Foundation) can be referred to.), and the growth of the bacteria was measured by the diameter of a colony. […] R=100(dc−dt)/dc (Equation 3) [wherein each symbol is shown as follows: R=Hypha extension inhibition rate (%), dc=Diameter of colony on no-treated plate, dt=Diameter of colony on chemical-treated plate.] The results obtained above was evaluated in 5 steps in accordance with the following examination scale. <Growth Inhibition> 5: Hypha extension inhibition rate of 90% or more 4: Hypha extension inhibition rate of from 70% to less than 90% 3: […] 2: […] In addition, the abbreviations in Table 10 are as follows: B.c: Botrytis cinerea

[3] = test system: cucumber powdery mildew; test: Test of control effect on cucumber powdery mildew; type: in vivo; conditions: wettable powder 100 mg/l, 100 liters/10 a, cucumber (Sagamihanpakufushinari), examined 9th to 14th day after inoculation
Experimental: (Test of Control Effect on Cucumber Powdery Mildew) The wettable powders formulated by using each of the compounds I-1 to 27 according to the present invention and the comparative compounds (a) to (d), (m-1) and (m-3) were each diluted and suspended with water to a predetermined concentration (100 mg/l), the suspension was sprinkled over the first to the second leaf period cucumbers (variety: “[…]”) cultivated by using a square plastic pot (size: 6.4 cm×6.4 cm) in a rate of 100 liters/10 a (ares). After the sprinkled leaves were air-dried, the spores were inoculated over the leaves by sprinkling the same with a brush from an infected leaf, a disease was contracted in a glass house (temperature: 20 to 24° C., relative humidity: 20 to 70 RH). On the 9th to 14th day after the inoculation, the infection degree was examined according to the following scale and the control value of each compound was calculated by the following calculation equation 2: (Examination Scale) [table]

[4] = test system: wheat powdery mildew; test: Test of control effect on wheat powdery mildew; type: in vivo; parameters: Control Value: scale not given here; conditions: wettable powder 125 mg/l, 100 liters/10 a, wheat seedlings (Nourin 64), examined 9th to 14th day after inoculation
Experimental: (Test of Control Effect on Wheat Powdery Mildew) Wettable powders were prepared from compounds of the present invention I-1 to I-27 and comparative compounds (a) to (d), (m-1) and (m-3). The obtained wettable powder was diluted and suspended with water to provide the predetermined concentration (125 mg/l), and was sprinkled onto seedlings of wheat (variety: “Nourin 64”) at the first to the second leaf period which were cultivated using square plastic pots (size: 6.4 cm×6.4 cm) in a rate of 100 liters/10 a (ares). After drying the sprinkled leaves with air, a suspension of wheat powdery mildew spores taken from infected leaves was inoculated by spraying onto the sprinkled leaves. They were supervised in a green house (temperature: 20 to 24° C., relative humidity: 20 to 70 RH). On the 9th to 14th day after the inoculation, the infection degree was examined according to the following scale and the control value of each compound was calculated by the following calculation equation 1. [table]

SMILES | Relative Mobility [1] | Growth Inhibition B.c (1.6) [2] | Control Value [3] | Control Value [4] | inhibition at 1.6 ppm ([2]; read-out: Growth Inhibition B.c (1.6)) | pest or weed control at 100 µg/mL ([3]; Cucumis sativus) | pest or weed control at 125 µg/mL ([4]; Triticum aestivum)
CC(Cc1ccc(OC(F)F)cc1)CN(C)Cc1ccc(Cl)nc1 (stereo not drawn) [Compound I-13] | 9 | 4 (Hypha extension inhibition rate of from 70% to less than 90%) | 100 | 100 |  |  | 
CC(Cc1cccc(C(F)(F)F)c1F)CN(C)Cc1ccc(Cl)nc1 (stereo not drawn) [Compound I-7] | 5 | 4 (Hypha extension inhibition rate of from 70% to less than 90%) | 90 | 100 |  |  | 
CC(Cc1cc(F)cc(C(F)(F)F)c1)CN(C)Cc1ccc(Cl)nc1 (stereo not drawn) [Compound I-6] | 5 | 4 (Hypha extension inhibition rate of from 70% to less than 90%) | 100 | 100 |  |  | 
CC(Cc1ccc(Cl)c(OC(F)(F)F)c1)CN(C)Cc1ccc(Cl)nc1 (stereo not drawn) [Compound I-15] | 9 | 4 (Hypha extension inhibition rate of from 70% to less than 90%) | 100 | 100 |  |  | 
CC(Cc1ccc2c(c1)OC(Cl)(Cl)O2)CN(C)Cc1ccc(Cl)nc1 (stereo not drawn) [Compound I-25] | 3 | 4 (Hypha extension inhibition rate of from 70% to less than 90%) | 100 | 100 |  |  | 
CC(Cc1cc(C(F)(F)F)cc(C(F)(F)F)c1)CN(C)Cc1ccc(Cl)nc1 (stereo not drawn) [Compound I-1] | 3 | 4 (Hypha extension inhibition rate of from 70% to less than 90%) | 100 | 100 |  |  | 
CC(Cc1ccc(OC(F)(F)F)c(Cl)c1)CN(C)Cc1ccc(Cl)nc1 (stereo not drawn) [Compound I-18] | 8 | 5 (Hypha extension inhibition rate of 90% or more) | 100 | 100 |  |  | 
CC(Cc1ccc(C(F)(F)F)cc1C(F)(F)F)CN(C)Cc1ccc(Cl)nc1 (stereo not drawn) [Compound I-2] | 3 | 4 (Hypha extension inhibition rate of from 70% to less than 90%) | 100 | 100 |  |  | 
CC(Cc1ccc(OC(F)(F)C(F)C(F)(F)F)cc1)CN(C)Cc1ccc(Cl)nc1 (stereo not drawn) [Compound I-14] | 7 | 4 (Hypha extension inhibition rate of from 70% to less than 90%) | 100 | 100 |  |  | 
CC(Cc1cc(Cl)cc(C(F)(F)F)c1)CN(C)Cc1ccc(Cl)nc1 (stereo not drawn) [Compound I-5] | 3 | 4 (Hypha extension inhibition rate of from 70% to less than 90%) | 100 | 100 |  |  | 
COc1cccc(CC(C)CN(C)Cc2ccc(Cl)nc2)c1 (stereo not drawn) [(m-3), 6-chloro-N-[3-(3-methoxyphenyl)-2-methylpropyl]-N-methyl-3-pyridylmethylamine, reference compound] |  |  |  |  | < 20% | 0% | 0%
CC(Cc1c(F)c(F)c(C(F)(F)F)c(F)c1F)CN(C)Cc1ccc(Cl)nc1 (stereo not drawn) [Compound I-11] | 5 | 4 (Hypha extension inhibition rate of from 70% to less than 90%) | 100 | 90 |  |  | 
CC(Cc1ccc2c(c1)OC(F)(F)C(F)(F)O2)CN(C)Cc1ccc(Cl)nc1 (stereo not drawn) [Compound I-26] | 3 | 4 (Hypha extension inhibition rate of from 70% to less than 90%) | 100 | 100 |  |  | 
CC(Cc1cc(C(F)(F)F)ccc1C(F)(F)F)CN(C)Cc1ccc(Cl)nc1 (stereo not drawn) [Compound I-3] | 3 | 4 (Hypha extension inhibition rate of from 70% to less than 90%) | 100 | 90 |  |  | 
CC(Cc1cc(C(F)F)cc(C(F)(F)F)c1)CN(C)Cc1ccc(Cl)nc1 (stereo not drawn) [Compound I-4] | 3 | 4 (Hypha extension inhibition rate of from 70% to less than 90%) | 80 | 100 |  |  | 
CC(Cc1ccc2c(c1)C(F)(F)OC(F)(F)O2)CN(C)Cc1ccc(Cl)nc1 (stereo not drawn) [Compound I-27] | 3 | 4 (Hypha extension inhibition rate of from 70% to less than 90%) | 100 | 100 |  |  | 
CC(Cc1c(F)c(F)c(F)c(F)c1F)CN(C)Cc1ccc(Cl)nc1 (stereo not drawn) [Compound I-23] | 4 | 4 (Hypha extension inhibition rate of from 70% to less than 90%) | 70 | 100 |  |  | 
CC(Cc1ccc(OC(F)(F)Br)c(Cl)c1)CN(C)Cc1ccc(Cl)nc1 (stereo not drawn) [Compound I-19] | 8 | 4 (Hypha extension inhibition rate of from 70% to less than 90%) | 100 | 100 |  |  | 
CC(Cc1cc(Cl)c(F)c(Cl)c1)CN(C)Cc1ccc(Cl)nc1 (stereo not drawn) [Compound I-22] | 3 | 4 (Hypha extension inhibition rate of from 70% to less than 90%) | 100 | 100 |  |  | 

Reference: patent US20040152903A1, “6-chloro-3-pyridylmethylpropylamine derivatives, preparation process thereof and bactericides” (priority 2004, published 2004)
